Reference: US20260007758A1, “SO[…]-2 RECEPTOR (SST2R) NON-PEPTIDE DRUG CONJUGATES AND USES THEREOF” (Crinetics Pharmaceuticals, Inc., priority 2024, published 2026)
*1 amine or outer side, *2 acyl side, *3 side chain or, on linkers, in order; H or OH if unused. Where a SMILES comes first, the peptide text is derived from it. [ ]: non-standard residue; d: D form. The star is where a group is joined. X3 = Cc1cc(F)cc(-c2cnc(NCCNC(=O)CCOCCOCCOCCOCCC(=O)*)c(-c3nc4ccc(Cl)cc4[nH]3)c2N2CCC(N)CC2)c1; Dolaproine = CO[C@@H]([C@@H]1CCCN1)[C@@H](C)C(=O)O; Dil = CC[C@H](C)[C@H](NC)[C@@H](CC(=O)O)OC; PABC = O=C(OCc1ccc(N[*:1])cc1)[*:2]; X2 = C[C@@H](N*)[C@@H](O)c1ccccc1; Cit = NC(=O)NCCC[C@H](N)C(=O)O; NMeV = CN[C@H](C(=O)O)C(C)C; Ahx = NCCCCCC(=O)O

Experiments:
Format in all cases: cell-based
[1] = system: NCI-H524 human small cell lung cancer cells; experiment: H524 assay: inhibition of cell proliferation (CellTiter Glo); settings: 2 h treatment, washout, additional 70 h incubation
Procedure, shortened: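 NCI-H524 cells were exposed for 2 h to NDC in an 11-point two-fold series starting at 1 uM. The drug was then washed out and cells grew a further 70 h. CellTiter Glo luminescence gave % inhibition versus untreated control, and IC50 came from a four-parameter nonlinear regression.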

[2] = target: T1, human somatostatin receptor subtype 2 (Homo sapiens, UniProt P30874); experiment: Functional assay for SSTR2 agonists (HTRF cAMP); settings: CHO-K1 cells stably expressing human SST2; NKH477-stimulated cAMP; 20 min at 37 C; read-out: hSST2 cAMP Avg EC50
T1 construct: expressed in transfected cells
Procedure, shortened: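 CHO-K1 cells stably expressing human SSTR2 treated with compound (typically 0-10,000 nM final) for 20 min at 37 °C. Lysate cAMP measured by HTRF (665/620 nm ratio), converted via standard curve; EC50 from cAMP vs concentration.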

SST2 = target: T2, SST2 (Homo sapiens, UniProt P30874); experiment: PathHunter CHO-K1 SST2 Internalization Assay; settings: PathHunter CHO-K1 SST2 cells; 90 min at 37 C; luminescence; read-out: Internalization EC50
T2 construct: host or cells: PathHunter CHO-K1 SST2 cells
Procedure, shortened: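 CHO-K1 cells expressing human SST2, 2500 cells/well, grown 48 h, then exposed 90 min at 37 C to 11-point 1:3 NDC dilutions (final top 10 uM). Beta-Glo luminescence after 60 min at room temperature; four-parameter IC50, duplicate mean, background-corrected.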

T2 sequence (P30874 whole entry): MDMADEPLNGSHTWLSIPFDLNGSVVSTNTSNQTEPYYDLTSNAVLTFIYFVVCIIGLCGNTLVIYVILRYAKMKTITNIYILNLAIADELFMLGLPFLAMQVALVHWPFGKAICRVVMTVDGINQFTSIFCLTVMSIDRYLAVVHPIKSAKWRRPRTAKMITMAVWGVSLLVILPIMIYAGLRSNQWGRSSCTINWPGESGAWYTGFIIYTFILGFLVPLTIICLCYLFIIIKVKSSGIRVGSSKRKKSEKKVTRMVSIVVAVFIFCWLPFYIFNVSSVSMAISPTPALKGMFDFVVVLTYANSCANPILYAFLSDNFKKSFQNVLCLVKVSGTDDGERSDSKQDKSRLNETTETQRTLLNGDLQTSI
T1 sequence (P30874 whole entry): as above

SMILES | EC50 [1] [nM] | EC50 [2] [nM] | EC50 (SST2) [nM]
CC[C@H](C)[C@@H]([C@@H](CC(=O)N1CCC[C@H]1[C@H](OC)[C@@H](C)C(=O)N[C@H](C)[C@@H](O)c1ccccc1)OC)N(C)C(=O)[C@@H](NC(=O)[C@H](C(C)C)N(C)C(=O)OCc1ccc(NC(=O)[C@H](CCCNC(N)=O)NC(=O)[C@@H](NC(=O)[C@@H](CS(=O)(=O)O)NC(=O)CCOCCC(=O)NCCNc2ncc(-c3cc(C)cc(F)c3)c(N3CCC(N)CC3)c2-c2nc3ccc(Cl)cc3[nH]2)C(C)C)cc1C(=O)NCCN)C(C)C [Compound 29] | 2.6 | 0.076 | 8.5
CC[C@H](C)[C@@H]([C@@H](CC(=O)N1CCC[C@H]1[C@H](OC)[C@@H](C)C(=O)N[C@H](C)[C@@H](O)c1ccccc1)OC)N(C)C(=O)[C@@H](NC(=O)[C@H](C(C)C)N(C)C(=O)OCc1ccc(NC(=O)[C@H](CCCNC(N)=O)NC(=O)[C@@H](NC(=O)CCOCCC(=O)NCCNc2ncc(-c3cc(C)cc(F)c3)c(N3CCC(N)CC3)c2-c2nc3ccc(Cl)cc3[nH]2)C(C)C)c(OCC(=O)O)c1)C(C)C [Compound 18] | 7.8 | 0.097 | 6.4
CC[C@H](C)[C@@H]([C@@H](CC(=O)N1CCC[C@H]1[C@H](OC)[C@@H](C)C(=O)N[C@H](C)[C@@H](O)c1ccccc1)OC)N(C)C(=O)[C@@H](NC(=O)[C@H](C(C)C)N(C)C(=O)OCc1ccc(NC(=O)[C@H](C)NC(=O)[C@@H](NC(=O)CCOCCOCCOCCOCCC(=O)NCCNc2ncc(-c3cc(C)cc(F)c3)c(N3CCC(N)CC3)c2-c2nc3ccc(Cl)cc3[nH]2)C(C)C)c(OCC(=O)O)c1)C(C)C [Compound 14] | 19 | 0.037 | 4.6
CC[C@H](C)[C@@H]([C@@H](CC(=O)N1CCC[C@H]1[C@H](OC)[C@@H](C)C(=O)N[C@H](C)[C@@H](O)c1ccccc1)OC)N(C)C(=O)[C@@H](NC(=O)[C@H](C(C)C)N(C)C(=O)OCc1ccc(NC(=O)[C@H](C)NC(=O)[C@@H](NC(=O)[C@H](CS(=O)(=O)O)NC(=O)CCOCCC(=O)NCCNc2ncc(-c3cc(C)cc(F)c3)c(N3CCC(N)CC3)c2-c2nc3ccc(Cl)cc3[nH]2)C(C)C)cc1C(=O)NCCN)C(C)C [Compound 27] | 190 | 0.12 | 7.2
CC[C@H](C)[C@@H]([C@@H](CC(=O)N1CCC[C@H]1[C@H](OC)[C@@H](C)C(=O)N[C@H](C)[C@@H](O)c1ccccc1)OC)N(C)C(=O)[C@@H](NC(=O)[C@H](C(C)C)N(C)C(=O)OCc1ccc(NC(=O)[C@H](C)NC(=O)[C@@H](NC(=O)CCOCCn2cc(CCC(=O)NCCNc3ncc(-c4cc(C)cc(F)c4)c(N4CCC(N)CC4)c3-c3nc4ccc(Cl)cc4[nH]3)nn2)C(C)C)c(O[C@@H]2O[C@H](C(=O)O)[C@@H](O)[C@H](O)[C@H]2O)c1)C(C)C [Compound 141] | 20 | 0.1 | 8.8
CC[C@H](C)[C@@H]([C@@H](CC(=O)N1CCC[C@H]1[C@H](OC)[C@@H](C)C(=O)N[C@H](C)[C@@H](O)c1ccccc1)OC)N(C)C(=O)[C@@H](NC(=O)[C@H](C(C)C)N(C)C(=O)OCc1ccc(NC(=O)[C@H](CCCNC(N)=O)NC(=O)[C@@H](NC(=O)CCCCCNC(=O)[C@H](CCC(=O)O)NC(=O)[C@H](CCC(N)=O)NC(=O)CCOCCOCCOCCOCCC(=O)NCCNc2ncc(-c3cc(C)cc(F)c3)c(N3CCC(N)CC3)c2-c2nc3ccc(Cl)cc3[nH]2)C(C)C)cc1)C(C)C [Compound 192] (X3-QE[Ahx]V[Cit][PABC][NMeV]V[Dil][Dolaproine]-X2) | 1300 | 0.37 | 12
CC[C@H](C)[C@@H]([C@@H](CC(=O)N1CCC[C@H]1[C@H](OC)[C@@H](C)C(=O)N[C@H](C)[C@@H](O)c1ccccc1)OC)N(C)C(=O)[C@@H](NC(=O)[C@H](C(C)C)N(C)C(=O)OCc1ccc(NC(=O)[C@H](CCCNC(N)=O)NC(=O)[C@@H](NC(=O)CCCCCCCCNc2ncc(-c3cc(C)cc(F)c3)c(N3CCC(N)CC3)c2-c2nc3ccc(Cl)cc3[nH]2)C(C)C)c(O[C@@H]2O[C@H](C(=O)NCC(=O)O)[C@@H](O)[C@H](O)[C@H]2O)c1)C(C)C [Compound 193] | 32 | 0.87 | 3.8
CC[C@H](C)[C@@H]([C@@H](CC(=O)N1CCC[C@H]1[C@H](OC)[C@@H](C)C(=O)N[C@H](C)[C@@H](O)c1ccccc1)OC)N(C)C(=O)[C@@H](NC(=O)[C@H](C(C)C)N(C)C(=O)OCc1ccc(NC(=O)[C@H](CCCNC(N)=O)NC(=O)[C@@H](NC(=O)c2cc(NCCOCCOCCOCCOCCC(=O)NCCNc3ncc(-c4cc(C)cc(F)c4)c(N4CCC(N)CC4)c3-c3nc4ccc(Cl)cc4[nH]3)cc(C(=O)NCC(=O)O)c2)C(C)C)cc1)C(C)C [Compound 144] | 81 | 0.25 | 21
CC[C@H](C)[C@@H]([C@@H](CC(=O)N1CCC[C@H]1[C@H](OC)[C@@H](C)C(=O)N[C@H](C)[C@@H](O)c1ccccc1)OC)N(C)C(=O)[C@@H](NC(=O)[C@H](C(C)C)N(C)C(=O)OCc1ccc(NC(=O)[C@H](CCCNC(N)=O)NC(=O)[C@@H](NC(=O)CCOCCOCCC(=O)NCCNc2ncc(-c3cc(C)cc(F)c3)c(N3CCC(N)CC3)c2-c2nc3ccc(Cl)cc3[nH]2)C(C)C)cc1C(=O)NCCCCCCCCCCC(=O)O)C(C)C [Compound 75] | 440 | 0.21 | 2.4
CC[C@H](C)[C@@H]([C@@H](CC(=O)N1CCC[C@H]1[C@H](OC)[C@@H](C)C(=O)N[C@H](C)[C@@H](O)c1ccccc1)OC)N(C)C(=O)[C@@H](NC(=O)[C@H](C(C)C)N(C)C(=O)OCc1ccc(NC(=O)[C@H](CCCNC(N)=O)NC(=O)[C@@H](NC(=O)c2cc(C(=O)NCC(=O)O)cc(N(C)CCOCCC(=O)NCCNc3ncc(-c4cc(C)cc(F)c4)c(N4CCC(N)CC4)c3-c3nc4ccc(Cl)cc4[nH]3)c2)C(C)C)cc1)C(C)C [Compound 158] | 40 | 0.15 | 5.1
CC[C@H](C)[C@@H]([C@@H](CC(=O)N1CCC[C@H]1[C@H](OC)[C@@H](C)C(=O)N[C@H](C)[C@@H](O)c1ccccc1)OC)N(C)C(=O)[C@@H](NC(=O)[C@H](C(C)C)N(C)C(=O)OCc1ccc(NC(=O)[C@H](CCCNC(N)=O)NC(=O)[C@@H](NC(=O)c2cn(CCOCCC(=O)NCCNc3ncc(-c4cc(C)cc(F)c4)c(N4CCC(N)CC4)c3-c3nc4ccc(Cl)cc4[nH]3)nn2)C(C)C)cc1)C(C)C [Compound 142] | 790 | 0.37 | 6.3
CC[C@H](C)[C@@H]([C@@H](CC(=O)N1CCC[C@H]1[C@H](OC)[C@@H](C)C(=O)N[C@H](C)[C@@H](O)c1ccccc1)OC)N(C)C(=O)[C@@H](NC(=O)[C@H](C(C)C)N(C)C(=O)OCc1ccc(NC(=O)[C@H](C)NC(=O)[C@@H](NC(=O)C2(C(=O)NCCOCCC(=O)NCCNc3ncc(-c4cc(C)cc(F)c4)c(N4CCC(N)CC4)c3-c3nc4ccc(Cl)cc4[nH]3)CCC2)C(C)C)cc1C(=O)NCCN)C(C)C [Compound 82] | 6.6 | 0.26 | 13
CC[C@H](C)[C@@H]([C@@H](CC(=O)N1CCC[C@H]1[C@H](OC)[C@@H](C)C(=O)N[C@H](C)[C@@H](O)c1ccccc1)OC)N(C)C(=O)[C@@H](NC(=O)[C@H](C(C)C)N(C)C(=O)OCc1ccc(NC(=O)[C@H](CCCNC(N)=O)NC(=O)[C@@H](NC(=O)[C@H](CCc2nnn[nH]2)NC(=O)CCOCCC(=O)NCCNc2ncc(-c3cc(C)cc(F)c3)c(N3CCC(N)CC3)c2-c2nc3ccc(Cl)cc3[nH]2)C(C)C)cc1C(=O)NCCN)C(C)C [Compound 84] | 580 | 0.28 | 3.8
CC[C@H](C)[C@@H]([C@@H](CC(=O)N1CCC[C@H]1[C@H](OC)[C@@H](C)C(=O)N[C@H](C)[C@@H](O)c1ccccc1)OC)N(C)C(=O)[C@@H](NC(=O)[C@H](C(C)C)N(C)C(=O)OCc1ccc(NC(=O)[C@H](C)NC(=O)[C@@H](NC(=O)CCOCCC(=O)NCCNc2ncc(-c3cc(C)cc(F)c3)c(N3CCC(N)CC3)c2-c2nc3ccc(Cl)cc3[nH]2)C(C)C)c(OCC(=O)O)c1)C(C)C [Compound 13] | 11 | 0.16 | 3.2
CC[C@H](C)[C@@H]([C@@H](CC(=O)N1CCC[C@H]1[C@H](OC)[C@@H](C)C(=O)N[C@H](C)[C@@H](O)c1ccccc1)OC)N(C)C(=O)[C@@H](NC(=O)[C@H](C(C)C)N(C)C(=O)OCc1ccc(NC(=O)[C@H](CCCNC(N)=O)NC(=O)[C@@H](NC(=O)[C@H](CCc2nnn[nH]2)NC(=O)CCOCCC(=O)NCCNc2ncc(-c3cc(C)cc(F)c3)c(N3CCC(N)CC3)c2-c2nc3ccc(Cl)cc3[nH]2)C(C)C)cc1)C(C)C [Compound 176] | 620 | 0.28 | 3.7
CC[C@H](C)[C@@H]([C@@H](CC(=O)N1CCC[C@H]1[C@H](OC)[C@@H](C)C(=O)N[C@H](C)[C@@H](O)c1ccccc1)OC)N(C)C(=O)[C@@H](NC(=O)[C@H](C(C)C)N(C)C(=O)OCc1ccc(NC(=O)[C@H](CCCNC(N)=O)NC(=O)[C@@H](NC(=O)c2cc(C(=O)NCC(=O)O)cc(N(C)CCOCCOCCOCCOCCC(=O)NCCNc3ncc(-c4cc(C)cc(F)c4)c(N4CCC(N)CC4)c3-c3nc4ccc(Cl)cc4[nH]3)c2)C(C)C)cc1)C(C)C [Compound 159] | 130 | 1.2 | 23
